Data reported in the supplement of paper PMC5579334.
± gives the standard deviation of the averaged measurements.

What was measured:
STS26T [1] = assay: drug sensitivity score (DSS, CellTox-Green cytotoxicity, 72 h) (DSS (dimensionless)); higher = more cytotoxic; extreme values may be limits of the assay
Method in brief: (§1)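 For 72 h at 37 °C, MPNST cell lines and primary human Schwann cells were exposed in 384-well plates to five 10-fold compound dilutions. CellTox-Green, added before seeding at a final 1:1000 dilution, gave fluorescence from DNA released by disrupted cells. Signals were scaled to vehicle and positive-control wells, cultures failing plate quality control were left out, and four-parameter logistic fits were applied. Relative IC50 and drug sensitivity score were derived from the fits, with IC50 censored at the top concentration.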

[2] = tested on: HSC2 (primary human Schwann cells); assay: as above
Method in brief: as §1

HS-PSS [3] = assay: as above
Method in brief: as §1

[4] = tested on: HSC1 (primary human Schwann cells); assay: as above
Method in brief: as §1

S1507-2 [5] = assay: as above
Method in brief: as §1

ST8814 [6] = assay: as above
Method in brief: as §1

STS26T [7] = assay: % inhibition of CellTiter-Glo viability at highest tested concentration (72 h), relative to DMSO and benzethonium chloride controls; higher = more inhibition
Method in brief: (§2)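 After seeding 750–1000 cells per well of MPNST cell lines or primary human Schwann cells into 384-well plates preprinted with each compound at five concentrations in 10-fold steps, plates were kept 72 h at 37 °C, 5% CO2. Viability was read as CellTiter-Glo ATP luminescence relative to vehicle and positive-control wells, with duplicates averaged where present. The data were fitted with four-parameter logistic models. Drug sensitivity score and relative IC50, censored at the top concentration, derive from the fits, and percent inhibition refers to the top concentration.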

[8] = tested on: HSC2 (primary human Schwann cells); assay: as above
Method in brief: as §2

HS-Sch-2 [9] = assay: as above
Method in brief: as §2

HS-PSS [10] = assay: as above
Method in brief: as §2

YST-1 [11] = assay: as above
Method in brief: as §2

[12] = tested on: HSC1 (primary human Schwann cells); assay: as above
Method in brief: as §2

S1507-2 [13] = assay: as above
Method in brief: as §2

S462 [14] = assay: as above
Method in brief: as §2

ST8814 [15] = assay: as above
Method in brief: as §2

STS26T [16] = assay: drug sensitivity score (DSS, CellTiter-Glo viability, 72 h) (DSS (dimensionless)); higher = more sensitive; extreme values may be limits of the assay
Method in brief: as §2

[17] = tested on: HSC2 (primary human Schwann cells); assay: as above
Method in brief: as §2

HS-Sch-2 [18] = assay: as above
Method in brief: as §2

HS-PSS [19] = assay: as above
Method in brief: as §2

YST-1 [20] = assay: as above
Method in brief: as §2

[21] = tested on: HSC1 (primary human Schwann cells); assay: as above
Method in brief: as §2

S1507-2 [22] = assay: as above
Method in brief: as §2

S462 [23] = assay: as above
Method in brief: as §2

ST8814 [24] = assay: as above
Method in brief: as §2

Compound | drug sensitivity score (STS26T [1]) | drug sensitivity score [2] | drug sensitivity score (HS-PSS [3]) | drug sensitivity score [4] | drug sensitivity score (S1507-2 [5]) | drug sensitivity score (ST8814 [6]) | % inhibition (STS26T [7]) | % inhibition [8] | % inhibition (HS-Sch-2 [9]) | % inhibition (HS-PSS [10]) | % inhibition (YST-1 [11]) | % inhibition [12] | % inhibition (S1507-2 [13]) | % inhibition (S462 [14]) | % inhibition (ST8814 [15]) | drug sensitivity score (STS26T [16]) | drug sensitivity score [17] | drug sensitivity score (HS-Sch-2 [18]) | drug sensitivity score (HS-PSS [19]) | drug sensitivity score (YST-1 [20]) | drug sensitivity score [21] | drug sensitivity score (S1507-2 [22]) | drug sensitivity score (S462 [23]) | drug sensitivity score (ST8814 [24])
CC[C@@H]1C(=O)N(C)c2cnc(Nc3ccc(C(=O)N[C@H]4CC[C@H](N5CCN(CC6CC6)CC5)CC4)cc3OC)nc2N1C(C)C [Volasertib] (max concentration tested 1000 nM) | 30.8 | 19.2 | 0 | 12.8 | 13.2 ± 1.2 | 13.9 | 78.3% | 79.3% | 59.3% | 59.5% | 55.3% | 53% | 79.2 ± 8.9% | 95.95 ± 0.59% | 80.6% | 23.5 | 14.8 | 19.5 | 8.74 | 15 | 10.6 | 17.138 ± 0.0087 | 21.2 ± 0.31 | 14.4
Cc1ccc(Nc2nccc(N(C)c3ccc4c(C)n(C)nc4c3)n2)cc1S(N)(=O)=O [Pazopanib] (max concentration tested 10000 nM) | 0 | 0 | 0 | 0 | 0 | 0 | 7.27% | 15.2% | 20.7% | 42.6% | 0.99% | 20.7% | 9.04 ± 7% | -0.988 ± 9.1% | -2.02% | 0 | 0.68 | 1.37 | 6.09 | 0 | 2.03 | 0.325 ± 0.46 | 0 | 0
FC(F)c1nc2ccccc2n1-c1nc(N2CCOCC2)nc(N2CCOCC2)n1 [ZSTK474] (max concentration tested 10000 nM) | 0 | 0.497 | 0 | 0 | 0.69 ± 0.011 | 0 | 80% | 77.2% | 38.2% | 30.6% | 81.3% | 75.7% | 76.7 ± 9% | 59.4 ± 5% | 69.7% | 14.6 | 9.9 | 4.18 | 3.54 | 15.1 | 8.75 | 13.5 ± 2.1 | 8 ± 0.68 | 8.94
Cc1ccc(-c2cc(C(F)(F)F)nn2-c2ccc(S(N)(=O)=O)cc2)cc1 [Celecoxib] (max concentration tested 10000 nM) | 0 | 0 | 0 | 0 | 0 | 0 | -2% | 3.55% | -1.87% | -9.36% | 4.7% | 11.3% | -6.68 ± 15% | 0.832 ± 4.7% | -6.53% | 0 | 0 | 0 | 0 | 0 | 0.156 | 0 | 0 | 0
COc1cc(Nc2ncc3c(n2)-c2ccc(Cl)cc2C(c2c(F)cccc2OC)=NC3)ccc1C(=O)O [Alisertib] (max concentration tested 10000 nM) | 18.8 | 0 | 0 | 0 | 4.28 ± 3.2 | 7.04 | 58.4% | 57.6% | 64.5% | 44.7% | 47.5% | 65.5% | 50.5 ± 5.3% | 59.1 ± 1% | 59.4% | 14.9 | 17.5 | 11.3 | 3.93 | 15 | 16.7 | 11.77 ± 0.033 | 18.8 ± 1.3 | 10.5
C=CCN(/C=C1/C(=O)O[C@H](COC)[C@@]2(C)C1=C(O)C(=O)C1=C2[C@H](OC(C)=O)C[C@]2(C)C(=O)CC[C@@H]12)CC=C [Sonolisib] (max concentration tested 10000 nM) | 0 | 0 | 0 | 0 | 0 | 0 | 11.4% | 13.1% | -0.71% | 3.89% | 7.12% | 6.67% | 15.9 ± 0.9% | 17.1 ± 5.5% | 7.84% | 0.263 | 0.415 | 0 | 0 | 0 | 0 | 0.798 ± 0.34 | 0.831 ± 1.2 | 0.745
CN(Cc1cnc2nc(N)nc(N)c2n1)c1ccc(C(=O)N[C@@H](CCC(=O)O)C(=O)O)cc1 [Methotrexate] (max concentration tested 5000 nM) | 4.94 | 0 | 0.89 | 0 | 0 | 0.851 | 62.5% | 13.5% | 58.8% | -5.89% | 24.6% | 3.1% | -2.04 ± 33% | 70.2 ± 8.4% | 38.2% | 25.9 | 0.0797 | 13.7 | 0 | 6.23 | 0 | 1.24 ± 1.8 | 19.9 ± 4.6 | 6.3
CCc1cncnc1N1CCN(Cc2nc3ccc(C(F)(F)F)cc3[nH]2)CC1 (max concentration tested 10000 nM) | 0 | 0 | 0 | 0 | 0 | 0 | 19.7% | 21.4% | 47.6% | 64% | 22.3% | 13.9% | 9.77 ± 2.6% | 13.2 ± 8.4% | 13.6% | 1.12 | 0.531 | 2.07 | 4.22 | 0.69 | 0.31 | 0.267 ± 0.38 | 0.305 ± 0.43 | 0.171
Cc1ccc(NC(=O)c2ccc(CN3CCN(C)CC3)cc2)cc1Nc1nc(-c2cccnc2)cs1 [Masitinib] (max concentration tested 10000 nM) | 3.63 | 0.804 | 1.06 | 2.96 | 4.73 ± 0.42 | 4.31 | 80.8% | 54.6% | 97.2% | 83.9% | 90.8% | 65.1% | 96.25 ± 0.36% | 71.4 ± 5.9% | 87.5% | 4.23 | 3.5 | 5.27 | 7.12 | 6.54 | 3.32 | 7.556 ± 0.038 | 3.78 ± 0.14 | 4.79
COc1cc2c(Oc3ccc(NC(=O)C4(C(=O)Nc5ccc(F)cc5)CC4)cc3F)ccnc2cc1OCCCN1CCOCC1 [Foretinib] (max concentration tested 1000 nM) | 4.03 | 0 | 0.08 | 0 | 1.26 ± 0.61 | 2.96 | 48.4% | 53.2% | 31.7% | 20.9% | 52.2% | 56.5% | 58.7 ± 5.1% | 50.2 ± 3% | 67.5% | 3.62 | 3.44 | 1.15 | 1.41 | 3.16 | 3.91 | 5.7 ± 0.45 | 3.22 ± 0.43 | 6.43
C=CCc1cccc(/C=N/NC(=O)CN2CCN(Cc3ccccc3)CC2)c1O [PAC-1] (max concentration tested 10000 nM) | 0 | 0 | 2.32 | 0 | 0 | 0.202 | 54.6% | 85.9% | 91.1% | 84.3% | 69.4% | 75.5% | 52.7 ± 7.1% | 73.6 ± 1.1% | 57.7% | 3.59 | 8.57 | 10.1 | 6.09 | 4.81 | 6.29 | 2.43 ± 0.66 | 3.7 ± 0.048 | 3.36
COC(=O)c1ccc2c(c1)NC(=O)/C2=C(\Nc1ccc(N(C)C(=O)CN2CCN(C)CC2)cc1)c1ccccc1 [Nintedanib] (max concentration tested 10000 nM) | 0 | 0 | 0.43 | 0 | 0 | 0 | 2.06% | -4.16% | 63.5% | 45.7% | 39.7% | 0.553% | -3.03 ± 4% | -7.48 ± 1.2% | 2.22% | 0 | 0 | 2.94 | 1.83 | 3.79 | 0 | 0 | 0 | 0
CC1(C)CCC(c2ccc(Cl)cc2)=C(CN2CCN(c3ccc(C(=O)NS(=O)(=O)c4ccc(N[C@H](CCN5CCOCC5)CSc5ccccc5)c(S(=O)(=O)C(F)(F)F)c4)cc3)CC2)C1 [Navitoclax] (max concentration tested 10000 nM) | 3.15 | 11.8 | 0 | 5.42 | 16 ± 1.1 | 5.52 | 11.3% | 53.1% | 32.7% | 3.02% | 34.2% | 23.8% | 47.8 ± 0.54% | 20.7 ± 5.9% | 24.4% | 0.0007 | 5.16 | 3.94 | 0 | 4.22 | 2.32 | 6.14 ± 0.43 | 0.978 ± 0.8 | 0.561
